According to patent US12365655B2, “Compounds” (CTXT PTY LTD, priority 2018, dated 2025):

How the values were obtained:
[1] = system: histone H2A.Z Lysine 7 acetylation marker in U2OS cells; assay: H2A.Z Lysine 7 Acetylation Biomarker Assay; type: cell-based; settings: Homo sapiens, serum free medium, 24 hours incubation, read-out: IC50, inhibition of histone H2A.Z Lysine 7 acetylation
Experimental: Compounds were tested for their ability to inhibit the histone H2A.Z Lysine 7 acetylation marker in the following assay:
The cell line U2OS was seeded at a density of 3,000 cells per well in 384-well optical quality tissue culture plates in RPMI medium supplemented with 10% foetal bovine serum and 10 mM Hepes. The cells were allowed to adhere for 24 hours under standard culture conditions (37 degree Celsius, 5% CO2). At the end of this period the cells were washed with serum free medium. […] 2018, at 30 μM concentration. After incubation for 24 hours, the cells were fixed with 4% formaldehyde in PBS for 15 minutes at room temperature, washed with phosphate buffer saline and blocked with blocking buffer containing 0.2% TritonX100 and 2% BSA. Anti-H2A.ZK7ac specific antibody (Abcam) in blocking buffer was added and incubated overnight at 4 degree Celsius. After washing, a secondary antibody labelled with AlexaFluor 488 dye (ThermoFisher) and Hoechst 33342 (1 μg/mL, Life Technologies) were added for 2 hours incubation at room temperature. Plates were washed and read on a PerkinElmer Opera HCS high content imaging platform. Using a Columbus image analysis pipeline, individual nuclei were located by Hoechst 33342 stain and the acetylation level was calculated from the AlexaFluor 488-related intensity in the same area.

MOF-KAT8 = biological target: T1, MOF-KAT8 (Homo sapiens, UniProt Q9H7Z6); assay: biochemical
T1 sequence (Q9H7Z6 with tags, fused parts or gaps): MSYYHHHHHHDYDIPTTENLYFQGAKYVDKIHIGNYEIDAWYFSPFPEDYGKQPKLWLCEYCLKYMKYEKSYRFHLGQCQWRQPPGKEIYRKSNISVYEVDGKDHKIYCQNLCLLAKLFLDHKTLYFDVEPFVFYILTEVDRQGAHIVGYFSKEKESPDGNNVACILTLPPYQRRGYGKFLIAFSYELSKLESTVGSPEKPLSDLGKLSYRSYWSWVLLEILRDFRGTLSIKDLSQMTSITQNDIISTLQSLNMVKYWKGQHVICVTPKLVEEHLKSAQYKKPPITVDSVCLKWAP

TIP60-KAT5 = TIP60-KAT5 (Homo sapiens, UniProt Q92993); assay: Acetyltransferase biochemical assay (AlphaScreen), KAT5
TIP60-KAT5, sequence (Q92993 with tags, fused parts or gaps isoform Q92993-2): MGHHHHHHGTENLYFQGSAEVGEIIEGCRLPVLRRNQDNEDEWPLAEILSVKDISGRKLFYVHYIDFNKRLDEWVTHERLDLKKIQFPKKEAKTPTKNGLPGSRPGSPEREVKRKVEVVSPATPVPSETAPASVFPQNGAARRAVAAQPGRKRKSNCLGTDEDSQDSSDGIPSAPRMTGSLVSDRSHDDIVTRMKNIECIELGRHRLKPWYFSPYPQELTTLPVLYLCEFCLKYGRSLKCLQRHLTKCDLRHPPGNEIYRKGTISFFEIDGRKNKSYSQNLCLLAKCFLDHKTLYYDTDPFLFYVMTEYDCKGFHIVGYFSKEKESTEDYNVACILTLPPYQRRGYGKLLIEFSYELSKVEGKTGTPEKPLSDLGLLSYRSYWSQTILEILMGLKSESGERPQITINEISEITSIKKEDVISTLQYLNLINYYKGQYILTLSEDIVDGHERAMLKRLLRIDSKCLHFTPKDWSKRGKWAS

HBO-KAT7 = HBO-KAT7 (Homo sapiens, UniProt O95251); assay: Acetyltransferase biochemical assay (AlphaScreen), KAT7
HBO-KAT7, sequence (O95251 with tags, fused parts or gaps): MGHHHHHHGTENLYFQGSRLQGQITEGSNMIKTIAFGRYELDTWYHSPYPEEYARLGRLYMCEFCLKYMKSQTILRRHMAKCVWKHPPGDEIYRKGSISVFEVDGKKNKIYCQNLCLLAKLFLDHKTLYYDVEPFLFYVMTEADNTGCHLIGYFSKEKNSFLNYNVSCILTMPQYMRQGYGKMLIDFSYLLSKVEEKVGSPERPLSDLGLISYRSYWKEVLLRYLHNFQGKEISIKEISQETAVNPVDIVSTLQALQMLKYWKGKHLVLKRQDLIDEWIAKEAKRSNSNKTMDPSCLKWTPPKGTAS

MOZ-KAT6A = MOZ-KAT6A (Homo sapiens, UniProt Q92794, A567V); assay: Acetyltransferase biochemical assay (AlphaScreen), KAT6A
MOZ-KAT6A, sequence (Q92794 with tags, fused parts or gaps A567V): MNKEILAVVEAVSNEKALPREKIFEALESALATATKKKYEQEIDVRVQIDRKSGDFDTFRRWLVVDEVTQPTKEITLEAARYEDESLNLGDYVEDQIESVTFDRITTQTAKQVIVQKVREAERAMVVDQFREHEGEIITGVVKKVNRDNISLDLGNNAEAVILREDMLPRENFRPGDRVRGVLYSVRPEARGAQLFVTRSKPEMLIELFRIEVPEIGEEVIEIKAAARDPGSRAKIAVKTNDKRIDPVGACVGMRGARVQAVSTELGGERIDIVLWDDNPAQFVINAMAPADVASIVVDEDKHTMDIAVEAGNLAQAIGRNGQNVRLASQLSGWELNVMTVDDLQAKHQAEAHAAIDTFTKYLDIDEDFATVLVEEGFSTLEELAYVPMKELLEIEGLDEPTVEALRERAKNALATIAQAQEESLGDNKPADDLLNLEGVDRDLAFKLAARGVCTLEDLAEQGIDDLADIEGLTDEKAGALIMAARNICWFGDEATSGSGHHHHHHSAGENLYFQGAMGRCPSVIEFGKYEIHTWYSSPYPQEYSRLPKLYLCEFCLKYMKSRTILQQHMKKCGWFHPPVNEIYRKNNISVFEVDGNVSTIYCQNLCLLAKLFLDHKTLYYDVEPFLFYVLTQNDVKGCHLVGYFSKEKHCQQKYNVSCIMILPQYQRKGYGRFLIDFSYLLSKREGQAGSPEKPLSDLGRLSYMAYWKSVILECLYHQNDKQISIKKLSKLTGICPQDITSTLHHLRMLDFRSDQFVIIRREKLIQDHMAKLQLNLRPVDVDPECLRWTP

[2] = system: acetylation of the histone H3K23 marker in U2OS cells; assay: Histone H3 Lysine 23 Acetylation Biomarker Assay; type: cell-based; settings: Homo sapiens, 24 hours incubation, read-out: IC50, inhibition of histone H3K23 acetylation
Experimental: Compounds were tested for their ability to inhibit acetylation of the histone H3K23 marker in the following assay:
The cell line U2OS was seeded at a density of 9,000 cells per well in 96 well optical quality tissue culture plates in RPMI medium and 10% foetal bovine serum, and allowed to adhere for 24 hours under standard culture conditions (37 degree Celsius, 5% CO2). At the end of this period the medium was aspirated. […] After incubation for 24 hours, the cells were fixed with 3.7% formaldehyde in PBS for 20 minutes at room temperature, washed (5×5 minutes) with phosphate buffer saline containing 0.1% Tween 20 and blocked with Odyssey blocking buffer (LI-COR, Lincoln, Nebr.) containing 0.1% TritonX100. Anti-H3K23ac specific antibody (Abcam ab177275) in Odyssey blocking buffer containing 0.1% Tween 20 was added and incubated for 16 hours at 4 degree Celsius. After washing (as above), a secondary antibody labelled with Alexa647 dye (LifeTechnologies) and Hoechst 33342 (1 μg/mL, SigmaAldrich) were added for 1 hour incubation. Plates were washed as previously and read on a PerkinElmer Phenix high content imaging platform. Using a Columbus image analysis pipeline, individual nuclei were located by Hoechst 33342 stain and the acetylation level was calculated from the Alexa647-related intensity in the same area.

[3] = system: acetylation of the histone H3 Lysine 14 marker in U2OS cells; assay: Histone H3 Lysine 14 Acetylation Biomarker Assay; type: cell-based; settings: Homo sapiens, serum free medium, 24 hours incubation, read-out: IC50, inhibition of histone H3 Lysine 14 acetylation
Experimental: Compounds were tested for their ability to inhibit acetylation of the histone H3 Lysine 14 marker in the following assay:
The cell line U2OS was seeded at a density of 3,000 cells per well in 384-well optical quality tissue culture plates in RPMI medium supplemented with 10% foetal bovine serum and 10 mM Hepes. The cells were allowed to adhere for 24 hours under standard culture conditions (37 degree Celsius, 5% CO2). At the end of this period the cells were washed with serum free medium. […] After incubation for 24 hours, the cells were fixed with 4% formaldehyde in PBS for 15 minutes at room temperature, washed with phosphate buffer saline and blocked with blocking buffer containing 0.2% TritonX100 and 2% BSA. Anti-H3K14ac specific antibody (Cell Signalling Technologies) in blocking buffer was added and incubated overnight at 4 degree Celsius. After washing, a secondary antibody labelled with AlexaFluor 488 dye (ThermoFisher) and Hoechst 33342 (1 μg/mL, Life Technologies) were added for 2 hours incubation at room temperature. Plates were washed and read on a PerkinElmer Opera HCS high content imaging platform. Using a Columbus image analysis pipeline, individual nuclei were located by Hoechst 33342 stain and the acetylation level was calculated from the AlexaFluor 488-related intensity in the same area.

| Compound | IC50 [1] [µM] | IC50 (MOF-KAT8) [µM] | IC50 (TIP60-KAT5) [µM] | IC50 (HBO-KAT7) [µM] | IC50 (MOZ-KAT6A) [µM] | IC50 [2] [µM] | IC50 [3] [µM] |
| --- | --- | --- | --- | --- | --- | --- | --- |
| COc1ccc(S(=O)(=O)Nc2noc3cc(C(N)=O)c(C)cc23)c2ncccc12 [Example 168, 3-((5-methoxyquinoline)-8-sulfonamido)-5-methylbenzo[d]isoxazole-6-carboxamide] | > 40 | 6.46 | 3.42 | 36.4 | 10 | – | – |
| COc1cncc(-c2cc(OC)c3c(NS(=O)(=O)c4c(OC)cccc4OC)noc3c2)c1 [Example 250, 2,6-Dimethoxy-N-(4-methoxy-6-(5-methoxypyridin-3-yl)benzo[d]isoxazol-3-yl)benzenesulfonamide] | 13.2 | – | 12.2 | 0.05 | 0.423 | 3.71 | 3.48 |
| CCOc1cccc(OC)c1S(=O)(=O)Nc1noc2cccc(OC)c12 [Example 218, 2-Ethoxy-6-methoxy-N-(4-methoxybenzo[d]isoxazol-3-yl)benzenesulfonamide] | – | – | > 125 | 6.44 | 6.59 | – | > 40 |
| COc1cccc(OC)c1S(=O)(=O)Nc1noc2cc(Br)cc(OC)c12 [Example 89] | 19.8 | – | 5.79 | 0.168 | 0.285 | – | 3.96 |
| COc1ccccc1S(=O)(=O)Nc1noc2cccc(Cl)c12 [Example 155] | > 40 | – | 0.672 | 0.248 | 2.12 | > 10 | 26.1 |
| CCc1ccc(OC)c(S(=O)(=O)Nc2noc3c(-c4cnn(C)c4)cccc23)c1 [Example 191, 5-Ethyl-2-methoxy-N-(7-(1-methyl-1H-pyrazol-4-yl)benzo[d]isoxazol-3-yl)benzenesulfonamide] | > 40 | – | 68.7 | 1.58 | 12.6 | > 10 | 17.8 |
| COc1cccc(F)c1S(=O)(=O)Nc1noc2cccc(OC)c12 [Example 212, 2-Fluoro-6-methoxy-N-(4-methoxybenzo[d]isoxazol-3-yl)benzenesulfonamide] | – | – | 9.3 | 1.05 | 2.12 | – | 10.3 |
| COc1cccc2onc(NS(=O)(=O)c3cccc4c3OCCC4)c12 [Example 82, N-(4-methoxybenzo[d]isoxazol-3-yl)chromane-8-sulfonamide] | – | – | 8.25 | 1.5 | 6.13 | – | 12.6 |
| COc1cccc(OC)c1S(=O)(=O)Nc1noc2c(-c3ccccc3)cc(C)cc12 [Example 252, 2,6-Dimethoxy-N-(5-methyl-7-phenylbenzo[d]isoxazol-3-yl)benzenesulfonamide] | > 40 | – | 102 | 1.3 | 4.16 | – | 24.7 |
| COc1ccnc2c(S(=O)(=O)Nc3noc4cccc(OC)c34)cccc12 [Example 75, 4-methoxy-N-(4-methoxybenzo[d]isoxazol-3-yl)quinoline-8-sulfonamide] | – | – | 33.5 | 5.75 | 23.5 | – | > 40 |
| COc1cc(CNC(C)=O)cc(OC)c1S(=O)(=O)Nc1noc2cccc(OC)c12 [Example 211, N-(3,5-Dimethoxy-4-(N-(4-methoxybenzo[d]isoxazol-3-yl)sulfamoyl)benzyl)acetamide] | – | 29.5 | 7.93 | 0.917 | 2.13 | – | > 40 |
| CCc1ccc(OC)c(S(=O)(=O)Nc2noc3ccc(C4CC4)cc23)c1 [Example 236] | > 40 | 3.68 | 10.1 | 1.07 | 0.318 | – | > 40 |
| COc1ccc(S(=O)(=O)Nc2noc3cc(Br)c(C)cc23)c(OC)c1 [Example 171] | – | – | 4.37 | 0.292 | 1.88 | – | 2.57 |
| COc1cccc(OC)c1S(=O)(=O)Nc1noc2cccc(OC)c12 [Example 86, 2,6-dimethoxy-N-(4-methoxybenzo[d]isoxazol-3-yl)benzene sulfonamide] | – | – | 97.6 | 1.98 | 5.89 | 1.58 | – |
| COc1ccc(S(=O)(=O)Nc2noc3cccc(OC)c23)c2ncccc12 [Example 74, 5-methoxy-N-(4-methoxybenzo[d]isoxazol-3-yl) quinoline-8-sulfonamide] | – | – | 8.13 | 1.66 | 3.91 | – | 31.7 |
| COc1cccc(OC)c1S(=O)(=O)Nc1noc2cc(OC(F)F)cc(OC)c12 [Example 242] | – | – | 27.3 | 1.78 | 3.23 | 0.672 | – |
| COc1cccc(OC)c1S(=O)(=O)Nc1noc2cc(C(C)OC)cc(OC)c12 (centres unmarked) [Example 93, 2,6-Dimethoxy-N-(4-methoxy-6-(1-methoxyethyl)benzo[d]isoxazol-3-yl)benzenesulfonamide] | – | 96.5 | 53.1 | 2.8 | 0.181 | – | – |
| CCc1ccc(OC)c(S(=O)(=O)Nc2noc3ccc(C)cc23)c1 [Example 234, 5-Ethyl-2-methoxy-N-(5-methylbenzo[d]isoxazol-3-yl)benzenesulfonamide] | > 40 | – | 10.9 | 3.74 | 0.381 | – | – |
| COc1cc(COc2cccc(OC)c2S(=O)(=O)Nc2noc3cccc(OC)c23)ccn1 [Example 216, 2-Methoxy-N-(4-methoxybenzo[d]isoxazol-3-yl)-6-((2-methoxypyridin-4-yl)methoxy)benzenesulfonamide] | – | 11.2 | 124 | 3.11 | 0.625 | – | – |
| COc1cccc2onc(NS(=O)(=O)c3cccc4ccc(C)nc34)c12 [Example 80, N-(4-methoxybenzo[d]isoxazol-3-yl)-2-methyl quinoline-8-sulfonamide] | – | – | 10.9 | 1.13 | 3.47 | – | 11.5 |
| O=S(=O)(Nc1noc2cccc(Cl)c12)c1ccc(Cl)cc1 [Example 26, 4-chloro-N-(4-chlorobenzo[d]isoxazol-3-yl)benzenesulfonamide] | – | 29.5 | > 125 | 34.5 | 60.1 | – | – |
| COCc1cc(OC)c2c(NS(=O)(=O)c3c(O)cccc3OC)noc2c1 [Example 163, 2-hydroxy-6-methoxy-N-(4-methoxy-6-(methoxymethyl)benzo[d]isoxazol-3-yl)benzenesulfonamide] | – | > 125 | > 125 | 13.1 | 0.884 | – | 20.4 |
